target: Cyclic GMP-AMP synthase (Homo sapiens, UniProt Q8N884); assay: Biochemical (In Vitro) Assay
Sequence (Q8N884 whole entry): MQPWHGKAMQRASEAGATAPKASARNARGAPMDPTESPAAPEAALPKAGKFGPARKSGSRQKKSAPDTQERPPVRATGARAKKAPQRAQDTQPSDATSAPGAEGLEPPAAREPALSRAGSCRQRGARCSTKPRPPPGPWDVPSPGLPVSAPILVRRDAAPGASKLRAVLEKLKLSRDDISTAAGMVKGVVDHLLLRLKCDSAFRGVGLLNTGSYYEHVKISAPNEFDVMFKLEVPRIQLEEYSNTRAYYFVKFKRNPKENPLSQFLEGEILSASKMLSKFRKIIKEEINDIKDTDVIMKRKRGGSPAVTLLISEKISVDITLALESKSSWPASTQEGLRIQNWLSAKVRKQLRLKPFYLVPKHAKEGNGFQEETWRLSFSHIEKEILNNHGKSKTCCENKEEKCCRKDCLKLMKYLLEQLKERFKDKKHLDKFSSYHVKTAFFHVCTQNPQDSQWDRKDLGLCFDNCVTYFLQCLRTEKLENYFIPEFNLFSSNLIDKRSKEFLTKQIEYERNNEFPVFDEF

**Q.** With CC1(C#N)CCCN(c2cc(Cl)cnc2O[C@H]2C[C@@H](C(=O)O)N(c3nc(C(F)F)nc4c3oc3ccccc34)C2)C1 (stereo partly drawn) [US20240342186, Example 1.04] as the compound, how does the IC50 read?
**A.** 6 nM

**Q.** O=C(O)[C@@H]1C[C@H](Oc2ncc(Br)cc2N2CCOC3(COC3)C2)CN1c1nc(C(F)F)nc2c1oc1ccccc12 [US20240342186, Example 1.24] was tested. Which IC50 did it give?
**A.** 9 nM

**Q.** How did the IC50 turn out when C#Cc1cnc(O[C@H]2C[C@@H](C(=O)O)N(c3nc(C(F)F)nc4c3oc3ccccc34)C2)c(N2CCOC3(COC3)C2)c1 [US20240342186, Example 1.25] was run?
**A.** 4 nM
